Test system: renal sympathetic tone
Test: Renal pressure-flow measurements in anesthetized swine before and after renal sympatholysis with intrathecal ropivacaine
Format: in vivo, pigs
Text: METHODS: Referring to FIG. 4, nine adult male New Zealand White rabbits were implanted with arterial pressure telemeters and bilateral renal flow probes. One kidney of each rabbit was surgically denervated. The rabbits were acclimated to a procedure room and, after a two-week recovery, measurements of arterial pressure and bilateral renal blood flow were obtained in the conscious state. Referring to FIG. 5, ten pigs were induced and then anesthesia was maintained via ketamine-midazolam IV infusion. T9/T10 intrathecal and arterial access were established. A Volcano ComboWire® was placed in the renal artery to measure intravascular pressure and flow velocity. Intrathecal ropivacaine was given to reduce renal sympathetic tone, and renal pressure-flow measurements were repeated.
Referring to FIG. 6, Arterial pressure and renal blood flow measurements were used to estimate resistive flow as a function of time, which was in turn used to derive the renal pressure-flow time-varying transfer function (TVTF). TVTF analysis focused on known sympathetic vaso-motor frequencies (0.2-0.75 Hz in rabbits, 0.03-0.1 Hz in pigs). Control of renal vascular resistance in different states of innervation was characterized by occurrence plots of admittance gain and phase shift of the TVTF. Admittance gain reflects the normalized magnitude of oscillations in renal blood flow; phase shift reflects the timing of renal blood flow oscillations relative to arterial pressure.
Table 2 (below) illustrates the mean hemodynamics of the pigs before (“Baseline”) and after renal sympatholysis with intrathecal ropivacaine (“Ropi”).

CCCN1CCCC[C@H]1C(=O)Nc1c(C)cccc1C [Ropi, ropivacaine]
Renal Blood Flow Velocity (mean hemodynamics of anesthetized pigs after renal sympatholysis with intrathecal ropivacaine (T9/T10), baseline 24 +/− 3): 28 ± 5 cm/s
Arterial Pressure (mean hemodynamics of anesthetized pigs after renal sympatholysis with intrathecal ropivacaine (T9/T10), baseline 83 +/− 4): 72 +/− 7 mmHg
Heart Rate (mean hemodynamics of anesthetized pigs after renal sympatholysis with intrathecal ropivacaine (T9/T10), baseline 85 +/− 8): 71 +/− 5 bpm
Phase asynchrony of the renal pressure-flow time-varying transfer function at known sympathetic vasomotor frequencies (pigs, state PRIOR to intrathecal ropivacaine compared with after (0.03-0.1 Hz)): more phase asynchrony

— patent US11896423B2, “Time-varying quantification of capacitive and resistive arterial blood flow” (Board of Regents of the University of Nebraska, priority 2018, dated 2024)
